Assay results: patent US20220106289A1, “NLRP3 INHIBITORS” (INFLAZOME LIMITED, priority 2018, published 2022)
Structures can show the parent of a compound that is named as a salt.

Legend:
NLRP3 [1] = biological target: T1, NLRP3 (Homo sapiens, UniProt Q96P20); experiment: THP-1 cells pyroptosis assay (LPS + nigericin, resazurin read-out); format: cell-based; set-up: Seed THP-1 cells (25,000 cells/well) containing 1.0 μg/ml LPS; host or cells: THP-1 cells; details: NLRP3 inhibitory activity, 1 μg/ml LPS, 5 μM nigericin
Protocol: The cells were routinely passaged and grown to confluency (˜10^6 cells/ml). On the day of the experiment, THP-1 cells were harvested and resuspended into RPMI medium (without FBS). The cells were then counted and viability (>90%) checked by Trypan blue (Sigma #T8154). […] To this diluted cell solution was added LPS (Sigma #L4524) to give a 1 μg/ml Final Assay Concentration (FAC). 40 μl of the final preparation was aliquoted into each well of a 96-well plate. The plate thus prepared was used for compound screening. The following method step-by-step assay was followed for compound screening. • 1. […] Incubate for 3 hrs at 37° C., 5% CO2 • 4. Add 5 μl nigericin (Sigma #N7143) (FAC 5 μM) to all wells • 5. Incubate for 1 hr at 37° C., 5% CO2 • 6. At the end of the incubation period, spin plates at 300×g for 3 mins and remove supernatant • 7. Then add 50 μl of resazurin (Sigma #R7017) (FAC 100 μM resazurin in RPMI medium without FBS) and incubate plates for a further 1-2 hrs at 37° C. and 5% CO2 • 8.

NLRP3 [2] = biological target: T1, NLRP3; experiment: Human whole blood IL-1β release assay (LPS + nigericin, AlphaLisa); format: cell-based; set-up: Human whole blood in Li-heparin tubes was obtained from healthy donors; from tissue; host or cells: human whole blood from healthy donors; details: NLRP3 inhibitory activity, 1 μg/ml LPS, 10 μM nigericin, read-out: HWB IC50
Protocol: For systemic delivery, the ability to inhibit NLRP3 when the compounds are present within the bloodstream is of great importance. For this reason, the NLRP3 inhibitory activity of a number of compounds in human whole blood was investigated in accordance with the following protocol. Human whole blood in Li-heparin tubes was obtained from healthy donors from a volunteer donor panel. • 1. […] Incubate for 3 hrs at 37° C., 5% CO2 • 4. Add 10 μl nigericin (Sigma #N7143) (10 μM FAC) to all wells • 5. Incubate for 1 hr at 37° C., 5% CO2 • 6. At the end of the incubation period, spin plates at 300×g for 5 mins to pellet cells and remove 20 μl of supernatant and add to 96-well v-bottom plates for IL-1β analysis (note: these plates containing the supernatants can be stored at -80° C. to be analysed at a later date) • 7. IL-1β was measured according to the manufacturer protocol (Perkin Elmer-AlphaLisa IL-1 Kit A[…]-5000) • 8.

T1 sequence (Q96P20 whole entry): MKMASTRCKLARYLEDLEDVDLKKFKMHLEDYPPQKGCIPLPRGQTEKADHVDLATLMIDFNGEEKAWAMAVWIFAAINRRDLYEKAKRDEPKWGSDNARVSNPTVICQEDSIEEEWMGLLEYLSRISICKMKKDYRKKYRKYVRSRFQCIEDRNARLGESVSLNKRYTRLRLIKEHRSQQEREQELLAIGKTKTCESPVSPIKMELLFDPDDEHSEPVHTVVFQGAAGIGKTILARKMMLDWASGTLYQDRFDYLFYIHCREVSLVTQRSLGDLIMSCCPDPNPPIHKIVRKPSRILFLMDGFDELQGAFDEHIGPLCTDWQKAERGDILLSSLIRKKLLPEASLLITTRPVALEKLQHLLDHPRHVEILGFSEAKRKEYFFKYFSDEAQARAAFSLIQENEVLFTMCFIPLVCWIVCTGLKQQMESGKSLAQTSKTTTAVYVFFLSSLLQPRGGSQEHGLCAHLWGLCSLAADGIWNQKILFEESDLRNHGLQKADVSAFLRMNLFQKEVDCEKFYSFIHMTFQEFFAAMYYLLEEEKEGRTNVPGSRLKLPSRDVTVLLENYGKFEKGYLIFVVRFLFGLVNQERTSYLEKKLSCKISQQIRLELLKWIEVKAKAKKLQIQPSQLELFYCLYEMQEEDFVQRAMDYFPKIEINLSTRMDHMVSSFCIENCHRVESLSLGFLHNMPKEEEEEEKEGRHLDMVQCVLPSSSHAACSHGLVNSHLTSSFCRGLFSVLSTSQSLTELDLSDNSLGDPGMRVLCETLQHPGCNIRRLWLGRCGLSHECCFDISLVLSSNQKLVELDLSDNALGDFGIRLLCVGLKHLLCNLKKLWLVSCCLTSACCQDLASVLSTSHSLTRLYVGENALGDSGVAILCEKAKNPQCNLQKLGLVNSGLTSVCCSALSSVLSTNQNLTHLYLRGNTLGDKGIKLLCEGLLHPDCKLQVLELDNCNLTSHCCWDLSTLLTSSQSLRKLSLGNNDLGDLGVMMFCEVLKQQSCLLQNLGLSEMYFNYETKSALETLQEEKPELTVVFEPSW

SMILES | IC50 (NLRP3 [1]) | IC50 (NLRP3 [2])
CC(C)c1cc(C#N)cc(C(C)C)c1NC(=O)NS(=O)(=O)c1cc(C(C)(C)O)n(C)n1 [Example 71, N-((4-Cyano-2,6-diisopropylphenyl)carbamoyl)-5-(2-hydroxypropan-2-yl)-1-methyl-1H-pyrazole-3-sulfonamide] | 500 to 1000 nM | 1000 to 5000 nM
CC(C)n1ccc(S(=O)(=O)NC(=O)Nc2c3c(cc4c2C(=O)CC4)CCC3)n1 [Example 15, 1-Isopropyl-N-((3-oxo-1,2,3,5,6,7-hexahydro-s-indacen-4-yl)carbamoyl)-1H-pyrazole-3-sulfonamide, potassium salt] | 1000 to 5000 nM | > 10000 nM
NC/C(=C\F)COc1ccc(S(=O)(=O)NC(=O)Nc2c3c(cc4c2CCC4)CCC3)cc1 [Example 17, 4-((2-(Aminomethyl)-3-fluoroallyl)oxy)-N-((1,2,3,5,6,7-hexahydro-s-indacen-4-yl)carbamoyl)benzenesulfonamide, 2,2,2-trifluoroacetate salt] | 250 to 500 nM | 1000 to 5000 nM
CC(C)n1nc(S(=O)(=O)NC(=O)Nc2c3c(cc4c2CCC4)CCC3)cc1C(C)(C)O [Example 49, N-((1,2,3,5,6,7-Hexahydro-s-indacen-4-yl)carbamoyl)-5-(2-hydroxypropan-2-yl)-1-isopropyl-1H-pyrazole-3-sulfonamide] | < 250 nM | 500 to 1000 nM
CC(O)c1cc(S(=O)(=O)NC(=O)Nc2c3c(cc4c2CCC4)CCC3)nn1C(C)C (centres unmarked) [Example 54, N-((1,2,3,5,6,7-Hexahydro-s-indacen-4-yl)carbamoyl)-5-(1-hydroxyethyl)-1-isopropyl-1H-pyrazole-3-sulfonamide] | < 250 nM | 500 to 1000 nM
CC(C)n1ccc(S(=O)(=O)NC(=O)Nc2c3c(c(Cl)c4c2CCC4)CCC3)n1 [Example 35, N-((8-Chloro-1,2,3,5,6,7-hexahydro-s-indacen-4-yl)carbamoyl)-1-isopropyl-1H-pyrazole-3-sulfonamide] | < 250 nM | 5000 to 10000 nM
COC(C)c1cc(S(=O)(=O)NC(=O)Nc2c3c(cc4c2CCC4)CCC3)nn1C (centres unmarked) [Example 53, N-((1,2,3,5,6,7-Hexahydro-s-indacen-4-yl)carbamoyl)-5-(1-methoxyethyl)-1-methyl-1H-pyrazole-3-sulfonamide] | < 250 nM | 500 to 1000 nM
COC(C)(C)c1cc(S(=O)(=O)NC(=O)Nc2c(C(C)C)cccc2C(C)C)nn1C [Example 81, N-((2,6-Diisopropylphenyl)carbamoyl)-5-(2-methoxypropan-2-yl)-1-methyl-1H-pyrazole-3-sulfonamide] | 250 to 500 nM | 250 to 500 nM
CC(C)n1ccc(S(=O)(=O)NC(=O)Nc2c3c(cc4c2CCC4=O)CCC3)n1 [Example 31, 1-isopropyl-N-((1-oxo-1,2,3,5,6,7-hexahydro-s-indacen-4-yl)carbamoyl)-1H-pyrazole-3-sulfonamide, sodium salt] | 1000 to 5000 nM | 5000 to 10000 nM
[2H]C([2H])([2H])N(CCn1ccc(S(=O)(=O)NC(=O)Nc2c3c(cc4c2CCC4)CCC3)n1)C([2H])([2H])[2H] [Example 12, 1-(2-(Bis(methyl-d3)amino)ethyl)-N-((1,2,3,5,6,7-hexahydro-s-indacen-4-yl)carbamoyl)-1H-pyrazole-3-sulfonamide, potassium salt] | < 250 nM | 500 to 1000 nM
O=C(Nc1c2c(cc3c1CCC3)CCC2)NS(=O)(=O)c1cnn(CC(F)(F)F)c1 [Example 41, N-((1,2,3,5,6,7-Hexahydro-s-indacen-4-yl)carbamoyl)-1-(2,2,2-trifluoroethyl)-1H-pyrazole-4-sulfonamide, sodium salt] | 250 to 500 nM | 5000 to 10000 nM
CC(C)n1ccc(S(=O)(=O)NC(=O)Nc2cc(Br)ccc2Sc2nnnn2C)n1 [Example 28, N-((5-Bromo-2-((1-methyl-1H-tetrazol-5-yl)thio)phenyl)carbamoyl)-1-isopropyl-1H-pyrazole-3-sulfonamide] | 1000 to 5000 nM | 5000 to 10000 nM
CC(C)c1cc(F)cc2c1C(C(=O)NS(=O)(=O)c1ccn(C3CC3)n1)CCC2(C)C (centres unmarked) [Example 6, N-((1-Cyclopropyl-1H-pyrazol-3-yl)sulfonyl)-6-fluoro-8-isopropyl-4,4-dimethyl-1,2,3,4-tetrahydronaphthalene-1-carboxamide] | 1000 to 5000 nM | 5000 to 10000 nM
CC(C)c1cc(F)cc2c1C(C(=O)NS(=O)(=O)c1cc(C(C)(C)O)cs1)CC2(C)C (single isomer, unassigned) [Example 8, 5-Fluoro-N-((4-(2-hydroxypropan-2-yl)thiophen-2-yl)sulfonyl)-7-isopropyl-3,3-dimethyl-2,3-dihydro-1H-indene-1-carboxamide, potassium salt (rotamer P1)] | 500 to 1000 nM | 1000 to 5000 nM
CCn1cc(S(=O)(=O)NC(=O)Nc2c3c(cc4c2CCC4)CCC3)nn1 [Example 19, 1-Ethyl-N-((1,2,3,5,6,7-hexahydro-s-indacen-4-yl)carbamoyl)-1H-1,2,3-triazole-4-sulfonamide, potassium salt] | 250 to 500 nM | 500 to 1000 nM
CC(C)n1nc(S(=O)(=O)NC(=O)Nc2c3c(cc4c2CCC4)CCC3)cc1F [Example 62, 5-Fluoro-N-((1,2,3,5,6,7-hexahydro-s-indacen-4-yl)carbamoyl)-1-isopropyl-1H-pyrazole-3-sulfonamide, sodium salt] | < 250 nM | > 10000 nM
COc1cc(-c2cc(F)cc(C(C)C)c2CCC(=O)NS(=O)(=O)c2ccc(C(C)(C)O)cc2C)ccn1 [Example 3, 3-(4-Fluoro-2-isopropyl-6-(2-methoxypyridin-4-yl)phenyl)-N-((4-(2-hydroxypropan-2-yl)-2-methylphenyl)sulfonyl)propanamide] | 1000 to 5000 nM | > 10000 nM
CC(C)n1nncc1S(=O)(=O)NC(=O)Nc1c2c(cc3c1CCC3)CCC2 [Example 47, N-((1,2,3,5,6,7-Hexahydro-s-indacen-4-yl)carbamoyl)-1-isopropyl-1H-1,2,3-triazole-5-sulfonamide] | < 250 nM | 1000 to 5000 nM
CC(C)(CN1CCC1)n1ccc(S(=O)(=O)NC(=O)Nc2c3c(cc4c2CCC4)CCC3)n1 [Example 56, 1-(1-(Azetidin-1-yl)-2-methylpropan-2-yl)-N-((1,2,3,5,6,7-hexahydro-s-indacen-4-yl)carbamoyl)-1H-pyrazole-3-sulfonamide] | < 250 nM | 250 to 500 nM
CC(C)(CN1CCCC1)n1ccc(S(=O)(=O)NC(=O)Nc2c3c(cc4c2CCC4)CCC3)n1 [Example 65, N-((1,2,3,5,6,7-Hexahydro-s-indacen-4-yl)carbamoyl)-1-(2-methyl-1-(pyrrolidin-1-yl)propan-2-yl)-1H-pyrazole-3-sulfonamide, sodium salt] | < 250 nM | 250 to 500 nM
CC(C)n1ccc(S(=O)(=O)NC(=O)Nc2c3c(c(F)c4c2CCC4)CCC3)n1 [Example 61, N-((8-Fluoro-1,2,3,5,6,7-hexahydro-s-indacen-4-yl)carbamoyl)-1-isopropyl-1H-pyrazole-3-sulfonamide, sodium salt] | < 250 nM | 500 to 1000 nM
CC(C)n1cc(S(=O)(=O)NC(=O)Nc2c3c(c(Br)c4c2CCC4)CCC3)cn1 [Example 36, N-((8-Bromo-1,2,3,5,6,7-hexahydro-s-indacen-4-yl)carbamoyl)-1-isopropyl-1H-pyrazole-4-sulfonamide] | < 250 nM | 5000 to 10000 nM
O=C(Nc1c2c(cc3c1CCC3)C=CC2)NS(=O)(=O)c1cc[nH]n1 [Example 14, N-((1,2,3,5-Tetrahydro-s-indacen-4-yl)carbamoyl)-1H-pyrazole-3-sulfonamide, potassium salt] | 500 to 1000 nM | 5000 to 10000 nM
O=C(Nc1c2c(cc3c1CCC3)CCC2)NS(=O)(=O)c1ccn(CC(F)F)n1 [Example 63, 1-(2,2-Difluoroethyl)-N-((1,2,3,5,6,7-hexahydro-s-indacen-4-yl)carbamoyl)-1H-pyrazole-3-sulfonamide, sodium salt] | < 250 nM | 1000 to 5000 nM
CC(C)c1cc(Cl)c2c(c1NC(=O)NS(=O)(=O)c1ccn(C(C)C)n1)CCC2 [Example 34, N-((7-Chloro-5-isopropyl-2,3-dihydro-1H-inden-4-yl)carbamoyl)-1-isopropyl-1H-pyrazole-3-sulfonamide] | 250 to 500 nM | 5000 to 10000 nM
